Measurements published in patent US4619925A, “3-Propenyl cephalosporin derivatives” (priority 1985, dated 1986).
≈ marks a conversion by molar mass, not a printed value.

How the values were obtained:
Format in all cases: cell-based
E coli RGN-823 = assay: MIC, agar dilution technique (Mueller-Hinton Agar); conditions: Escherichia coli, RGN823, Gn-Ib, ampicillin and cephalothin resistant, read-out: Minimum Inhibitory Concentration
Description: (§1) Each of these groups of organisms is constituted of five individual strains of microorganism. The Gp-Ia organisms are Gram-positive staphylococci which are sensitive to penicillin. The Gp-Ib organisms are Gram-positive staphylococci which are resistant to penicillin and produce penicillinase. The Gn-Ia organisms are Gram-negative bacteria which are sensitive to ampicillin and cephalothin. The Gn-Ib organisms are Gram-negative bacteria which are resistant to ampicillin and cephalothin.

E. coli A15148 = assay: MIC, agar dilution technique (Mueller-Hinton Agar); conditions: Escherichia coli; E. coli A15148; Gn-Ib, ampicillin and cephalothin resistant; read-out: Minimum Inhibitory Concentration
Description: as §1

E. coli A20341-1 = assay: MIC, agar dilution technique (Mueller-Hinton Agar); conditions: Escherichia coli, A203411, read-out: Minimum Inhibitory Concentration
Description: as §1

E. coli A9660 = assay: MIC, agar dilution technique (Mueller-Hinton Agar); conditions: Escherichia coli, A9660, read-out: Minimum Inhibitory Concentration
Description: as §1

E. coli Juhl = assay: MIC, agar dilution technique (Mueller-Hinton Agar); conditions: Escherichia coli, read-out: Minimum Inhibitory Concentration
Description: as §1

K. pneumoniae A20345 = assay: MIC, agar dilution technique (Mueller-Hinton Agar); conditions: Klebsiella pneumoniae, Gn-Ib, ampicillin and cephalothin resistant, read-out: Minimum Inhibitory Concentration
Description: as §1

K. pneumoniae A20346 = assay: MIC, agar dilution technique (Mueller-Hinton Agar); conditions: Klebsiella pneumoniae, A20346, read-out: Minimum Inhibitory Concentration
Description: as §1

K. pneumoniae D11 = assay: MIC, agar dilution technique (Mueller-Hinton Agar); conditions: Klebsiella pneumoniae, D11, read-out: Minimum Inhibitory Concentration
Description: as §1

P. mirabilis A9554 = assay: MIC, agar dilution technique (Mueller-Hinton Agar); conditions: Proteus mirabilis, A9554, read-out: Minimum Inhibitory Concentration
Description: as §1

P. mirabilis A9900 = assay: MIC, agar dilution technique (Mueller-Hinton Agar); conditions: Proteus mirabilis, A9900, read-out: Minimum Inhibitory Concentration
Description: as §1

S. aureus A15092 = assay: MIC, agar dilution technique (Mueller-Hinton Agar); conditions: Staphylococcus aureus, Gp-Ib, penicillin resistant, read-out: Minimum Inhibitory Concentration
Description: as §1

S. aureus A9497 = assay: MIC, agar dilution technique (Mueller-Hinton Agar); conditions: Staphylococcus aureus, Gp-Ia, penicillin sensitive, read-out: Minimum Inhibitory Concentration
Description: as §1

S. aureus A9534 = assay: MIC, agar dilution technique (Mueller-Hinton Agar); conditions: Staphylococcus aureus, Gp-Ia, penicillin sensitive, read-out: Minimum Inhibitory Concentration
Description: as §1

S. aureus A9601 = assay: MIC, agar dilution technique (Mueller-Hinton Agar); conditions: Staphylococcus aureus, A9601, read-out: Minimum Inhibitory Concentration
Description: as §1

S. aureus A9602 = assay: MIC, agar dilution technique (Mueller-Hinton Agar); conditions: Staphylococcus aureus; S. aureus A9602; Gp-Ib, penicillin resistant; read-out: Minimum Inhibitory Concentration
Description: as §1

S. aureus BX-1633-2 = assay: MIC, agar dilution technique (Mueller-Hinton Agar); conditions: Staphylococcus aureus, BX16332, read-out: Minimum Inhibitory Concentration
Description: as §1

S. aureus No. 193 = assay: MIC, agar dilution technique (Mueller-Hinton Agar); conditions: Staphylococcus aureus, Gp-Ib, penicillin resistant, read-out: Minimum Inhibitory Concentration
Description: as §1

S. aureus Russell = assay: MIC, agar dilution technique (Mueller-Hinton Agar); conditions: Staphylococcus aureus; S. aureus Russell; Gp-Ib, penicillin resistant; read-out: Minimum Inhibitory Concentration
Description: as §1

S. aureus Smith = assay: MIC, agar dilution technique (Mueller-Hinton Agar); conditions: Staphylococcus aureus, Gp-Ia, penicillin sensitive, read-out: Minimum Inhibitory Concentration
Description: as §1

S. aureus Terajima = assay: MIC, agar dilution technique (Mueller-Hinton Agar); conditions: Staphylococcus aureus, Gp-Ia, penicillin sensitive, read-out: Minimum Inhibitory Concentration
Description: as §1

H. influenzae A22157 = assay: In vitro activity against fastidious bacteria; conditions: Haemophilus influenzae, ampicillin-resistant (ABPC-R)
Description: (§2) Table 5 contains comparative data for in vitro antibacterial activity against fastidious bacteria.

H. influenzae A22481 = assay: In vitro activity against fastidious bacteria; conditions: Haemophilus influenzae, ampicillin-resistant (ABPC-R)
Description: as §2

H. influenzae A22482 = assay: In vitro activity against fastidious bacteria; conditions: Haemophilus influenzae; H. influenzae A22482; ampicillin-sensitive (ABPC-S); read-out: MIC
Description: as §2

H. influenzae A22483 = assay: In vitro activity against fastidious bacteria; conditions: Haemophilus influenzae; H. influenzae A22483; ampicillin-sensitive (ABPC-S); read-out: MIC
Description: as §2

H. influenzae A22491 = assay: In vitro activity against fastidious bacteria; conditions: Haemophilus influenzae, ampicillin-resistant (ABPC-R)
Description: as §2

H. influenzae A9729 = assay: In vitro activity against fastidious bacteria; conditions: Haemophilus influenzae; H. influenzae A9729; ampicillin-sensitive (ABPC-S); read-out: MIC
Description: as §2

H. influenzae A9833 = assay: In vitro activity against fastidious bacteria; conditions: Haemophilus influenzae; H. influenzae A9833; ampicillin-sensitive (ABPC-S); read-out: MIC
Description: as §2

N. meningitidis A20048 = assay: In vitro activity against fastidious bacteria; conditions: Neisseria meningitidis, A20048
Description: as §2

N. meningitidis A20049 = assay: In vitro activity against fastidious bacteria; conditions: Neisseria meningitidis, A20049
Description: as §2

N. meningitidis A21487 = assay: In vitro activity against fastidious bacteria; conditions: Neisseria meningitidis, A21487
Description: as §2

N. meningitidis A21495 = assay: In vitro activity against fastidious bacteria; conditions: Neisseria meningitidis, A21495
Description: as §2

N. meningitidis A21497 = assay: In vitro activity against fastidious bacteria; conditions: Neisseria meningitidis, A21497
Description: as §2

S. pneumoniae A15069 = assay: In vitro activity against fastidious bacteria; conditions: Streptococcus pneumoniae, A15069
Description: as §2

S. pneumoniae A20759 = assay: In vitro activity against fastidious bacteria; conditions: Streptococcus pneumoniae, A20759
Description: as §2

S. pneumoniae Type III = assay: In vitro activity against fastidious bacteria; conditions: Streptococcus pneumoniae
Description: as §2

S. pneumoniae Type I = assay: In vitro activity against fastidious bacteria; conditions: Streptococcus pneumoniae
Description: as §2

S. pyogenes A15040 = assay: In vitro activity against fastidious bacteria; conditions: Streptococcus pyogenes, A15040
Description: as §2

S. pyogenes A20065 = assay: In vitro activity against fastidious bacteria; conditions: Streptococcus pyogenes, A20065
Description: as §2

S. pyogenes A20201 = assay: In vitro activity against fastidious bacteria; conditions: Streptococcus pyogenes, A20201
Description: as §2

S. pyogenes A9604 = assay: In vitro activity against fastidious bacteria; conditions: Streptococcus pyogenes, A9604
Description: as §2

S. pyogenes Dick = assay: In vitro activity against fastidious bacteria; conditions: Streptococcus pyogenes
Description: as §2

S. pyogenes s-23 = assay: In vitro activity against fastidious bacteria; conditions: Streptococcus pyogenes, S23
Description: as §2

Compound CC1=C(C(=O)O)N2C(=O)[C@@H](NC(=O)[C@H](N)c3ccccc3)[C@H]2SC1 [cephalexin] has an MIC (E coli RGN-823) of 12.5 µg/mL (≈ 36 µM), an MIC (E. coli A15148) of 100 µg/mL (≈ 288 µM) and an MIC (E. coli A20341-1) of 6.3 µg/mL (≈ 18.1 µM). The MIC (E. coli A9660) was 6.3 µg/mL (≈ 18.1 µM), the MIC (E. coli Juhl) was 6.3 µg/mL (≈ 18.1 µM) and the MIC (K. pneumoniae A20345) was 6.3 µg/mL (≈ 18.1 µM). It also gave an MIC (K. pneumoniae A20346) of 6.3 µg/mL (≈ 18.1 µM), an MIC (K. pneumoniae D11) of 6.3 µg/mL (≈ 18.1 µM) and an MIC (P. mirabilis A9554) of 12.5 µg/mL (≈ 36 µM). The MIC (P. mirabilis A9900) was 12.5 µg/mL (≈ 36 µM), the MIC (S. aureus A15092) was 6.3 µg/mL (≈ 18.1 µM) and the MIC (S. aureus A9497) was 1.6 µg/mL (≈ 4.61 µM). The MIC (S. aureus A9534) was 1.6 µg/mL (≈ 4.61 µM), the MIC (S. aureus A9601) was 1.6 µg/mL (≈ 4.61 µM) and the MIC (S. aureus A9602) was 3.1 µg/mL (≈ 8.92 µM). The MIC (S. aureus BX-1633-2) was 6.3 µg/mL (≈ 18.1 µM), the MIC (S. aureus No. 193) was 6.3 µg/mL (≈ 18.1 µM) and the MIC (S. aureus Russell) was 3.1 µg/mL (≈ 8.92 µM). For the same compound, the MIC (S. aureus Smith) was 1.6 µg/mL (≈ 4.61 µM), the MIC (S. aureus Terajima) was 1.6 µg/mL (≈ 4.61 µM) and the MIC (H. influenzae A22157) was 3.1 µg/mL (≈ 8.92 µM). The MIC (H. influenzae A22481) was 3.1 µg/mL (≈ 8.92 µM), the MIC (H. influenzae A22482) was 3.1 µg/mL (≈ 8.92 µM) and the MIC (H. influenzae A22483) was 3.1 µg/mL (≈ 8.92 µM). It also gave an MIC (H. influenzae A22491) of 3.1 µg/mL (≈ 8.92 µM), an MIC (H. influenzae A9729) of 3.1 µg/mL (≈ 8.92 µM) and an MIC (H. influenzae A9833) of 3.1 µg/mL (≈ 8.92 µM). It also gave an MIC (N. meningitidis A20048) of 3.1 µg/mL (≈ 8.92 µM), an MIC (N. meningitidis A20049) of 3.1 µg/mL (≈ 8.92 µM) and an MIC (N. meningitidis A21487) of 3.1 µg/mL (≈ 8.92 µM). The MIC (N. meningitidis A21495) was 3.1 µg/mL (≈ 8.92 µM), the MIC (N. meningitidis A21497) was 3.1 µg/mL (≈ 8.92 µM) and the MIC (S. pneumoniae A15069) was 3.1 µg/mL (≈ 8.92 µM). It also gave an MIC (S. pneumoniae A20759) of 3.1 µg/mL (≈ 8.92 µM), an MIC (S. pneumoniae Type III) of 3.1 µg/mL (≈ 8.92 µM) and an MIC (S. pneumoniae Type I) of 3.1 µg/mL (≈ 8.92 µM). The MIC (S. pyogenes A15040) was 0.8 µg/mL (≈ 2.3 µM), the MIC (S. pyogenes A20065) was 0.8 µg/mL (≈ 2.3 µM) and the MIC (S. pyogenes A20201) was 0.8 µg/mL (≈ 2.3 µM). It also gave an MIC (S. pyogenes A9604) of 0.8 µg/mL (≈ 2.3 µM), an MIC (S. pyogenes Dick) of 0.8 µg/mL (≈ 2.3 µM) and an MIC (S. pyogenes s-23) of 0.8 µg/mL (≈ 2.3 µM).
